The subject of data set [1] is gout patient group. The data set is described as follows: Phase 2 clinical trial (NCT03934099): blood uric acid concentration in gout patients. In kind it is in vivo, human. The protocol: (§1) A phase 2 clinical trial was conducted to analyze the dosage, TEAEs, and the like when the compound of Formula 1 (1-(3-cyano-1-isopropyl-indol-5-yl)pyrazol-4-carboxylic acid; compound of Example 1) is administered to a gout patient group.
• 1. Written informed consent (signed and dated) provided voluntarily prior to the start of the study. • 2. Male or female aged from 18 to 75 • 3. History or experience of hyperuricemia and gout in accordance with the criteria of the American College of Rheumatology. • 4. Self-reported history of 2 or more gout flare within 12 months prior to screening visit (Visit 1). • 5. Blood uric acid (sUA) levels at Visit 1 of 6.0 mg/dL or more in subjects who were receiving urate lower therapy (ULT) with allopurinol, febuxostat, probenecid, or lesinurad; and SUA levels at Visit 1 of 8.0 mg/dL or more and 12.0 mg/dL or less in subjects who had no history of receiving the ULT or were not receiving the ULT at visit 1. • 6. SUA levels of 8.0 mg/dL or more and 12.0 mg/dL or less at Visit 3. • 7. Body mass index of 42 kg/m^2 or less at screening visit (Visit 1). • 8. Estimated glomerular filtration rate (eGFR) of 60 mL/min/1.73 m^2 or more at screening visit (Visit 1). • 9. Subjects of childbearing potential with a negative pregnancy test result at screening visit (Visit 1). […]

Data set [2] concerns gout patient group. The data set is described as follows: Phase 2 clinical trial (NCT03934099): analysis of TEAEs. In kind it is in vivo, human. The protocol:
as §1
Selected patients gave written informed consent according to institutional and study procedures. After screening and wash-out processes (days 26 to 33 pre-dose), a total of 156 patients were finally enrolled, and each patient was randomly assigned to 5 groups of 50 mg, 100 mg and 200 mg dosing groups of the compound of Example 1, a placebo group, and a febuxostat group. Patients in each group self-administered 1 tablet of a combination drug (colchicine, 0.6 mg/day) for the prevention of gout flare along with the assigned investigational drug (50 mg, 100 mg and 200 mg doses of the compound of Example 1, placebo, and 40 mg of febuxostat group) orally, once every morning, at about the same time each day, with water, regardless of food.
The drug was administered for 84 days by setting the first dosing day of the drug as day 1, and basic tests, blood uric acid concentration and the like were measured at clinic visits on 14 days (week 2), 28 days (week 4), 56 days (week 8), and 84 days (week 12) during the dosing period to determine whether TEAEs occurred. After the end of drug administration, a safety follow-up was performed for an additional 2 weeks (98 days, week 14).
Among all patient groups participating in the clinical trial, although the administration was stopped for 3 patients due to headache, gout flare in the left ankle, and liver dysfunction in the 100 mg dosing group of Example 1 and for 1 patient due to an increase in hepatic enzyme in the 200 mg dosing group, no significant treatment emergency adverse event (TEAE) was found in the remaining patient groups.

For a further data set, the system named is gout patients. As to conditions: patient group receiving the drug, previous results; cited from earlier work.

Molecules are shown by their SMILES.

With `CC(C)n1cc(C#N)c2cc(-n3cc(C(=O)O)cn3)ccc21` [Example 1, 1-(3-cyano-1-isopropyl-indol-5-yl)pyrazole-4-carboxylic acid], the “blood uric acid lowering effect compared to febuxostat” value in the data set with gout patient group [1] (50 mg, 100 mg, 200 mg vs febuxostat 40 mg) was “equivalent or higher blood uric acid lowering effect”. Further, the “blood uric acid concentration kept within the normal range during the dosing period” value in the data set with gout patient group [1] (doses of 50 mg, 100 mg and 200 mg, reached within 2 weeks) is < 6.0 mg/dL. Besides, the “incidence of TEAEs” value in the data set on gout patient group [2] (50 mg, 100 mg and 200 mg groups, vs placebo and febuxostat groups) is “did not show a significant difference in the incidence of TEAEs”. The “patients for whom administration was stopped” value in the data set on gout patient group [2] (100 mg dosing group, headache, gout flare in the left ankle, liver dysfunction) worked out at 3 patients; with gout patient group [2] (200 mg dosing group, increase in hepatic enzyme) it was 1 patient. The “adverse cardiovascular TEAEs” value with gout patient group [2] (all dosing groups) was “no reports of adverse cardiovascular TEAEs having a causal relationship”.

For the molecule `Oc1ncnc2[nH]ncc12` [allopurinol], in the data set on gout patients, the “patients with a blood uric acid concentration of less than 6 mg/dL” value is “about 40%”.

(Values after patent US20240285583A1, “PHARMACEUTICAL COMPOSITION COMPRISING 1-(3-CYANO-1-ISOPROPYL-INDOL-5-YL)PYRAZOLE-4-CARBOXYLIC ACID” (LG CHEM, LTD., priority 2021, published 2024).)
